Assay results reported in US11708348B2, “Protease inhibitors for treatment of coronavirus infections” (The Scripps Research Institute, priority 2021, dated 2023).
Structures can show the parent of a compound that is named as a salt. Where two headings read alike, the source gives them in different places.

System: SARS-CoV-2 strain USA-WA1/2020
Assay: microbe, parasite or virus in culture
Assay type: cell-based
Details: read-out: EC50, uM (Hela)
[1] = Severe acute respiratory syndrome coronavirus 2, HeLa-ACE2, 24 h, HeLa-ACE2 cells, SARS-CoV-2 infection, 24 h
[2] = Severe acute respiratory syndrome coronavirus 2, HeLa-ACE2, 24 h, HeLa-ACE2 cells, SARS-CoV-2 infection, 24 h, class symbols
[3] = HeLa-ACE2 cells, SARS-CoV-2 infection, 24 h, class symbols

Compound	EC50 [2] [µM]	also measured
CC(C)C[C@H](NC(=O)C(=O)Nc1ccccc1F)C(=O)N[C@@H](Cc1cnc[nH]1)C(=O)COc1c(F)c(F)cc(F)c1F (single isomer, unassigned) [Compound 135, trifluoroacetate]		EC50 (Severe acute respiratory syndrome coronavirus 2, HeLa-ACE2, 24 h): 0.5 to 1 µM
C[C@H](C[C@@H](O)C(=O)N1CC2(CC2)C[C@H]1C(=O)N[C@@H](C[C@@H]1CCNC1=O)C(=O)COC(F)(F)F)C(F)(F)F (single isomer, unassigned) [Compound 426]		EC50 [1]: < 0.05 µM
CC[C@@H](NC(=O)OC(C)(C)C)C(=O)N1C[C@H]2[C@@H]([C@H]1C(=O)N[C@@H](CC1CCNC1=O)C(=O)COC(F)(F)F)C2(C)C (stereo in doubt) [Compound 438, tert-butyl ((R)-1-((1R,2S,5S)-6,6-dimethyl-2-(((S)-3-oxo-1-((S)-2-oxopyrrolidin-3-yl)-4-(trifluoromethoxy)butan-2-yl)carbamoyl)-3-azabicyclo[3.1.0]-hexan-3-yl)-1-oxobutan-2-yl)carbamate]		EC50 [1]: < 0.05 µM
COc1cccc2[nH]c(C(=O)N[C@@H](CC(C)C)C(=O)N[C@@H](C[C@@H]3CCNC3=O)C(=O)COc3c(F)c(F)cc(F)c3F)cc12 [Compound 1, 4-methoxy-N-((S)-4-methyl-1-oxo-1-(((S)-3-oxo-1-((S)-2-oxopyrrolidin-3-yl)-4-(2,3,5,6-tetrafluorophenoxy)butan-2-yl)amino)pentan-2-yl)-1H-indole-2-carboxamide]	0.05 to 0.2	
COc1cccc2[nH]c(C(=O)N[C@@H](CC(C)C)C(=O)N[C@@H](C[C@@H]3CCNC3=O)C(=O)COc3c(F)cccc3F)cc12 [Compound 2]		EC50 [3]: 0.5 to 1 µM
COc1cccc2[nH]c(C(=O)N[C@@H](CC(C)C)C(=O)N[C@@H](C[C@@H]3CCNC3=O)C(=O)COC(=O)c3c(Cl)cccc3Cl)cc12 [Compound 3, (S)-3-((S)-2-(4-methoxy-1H-indole-2-carboxamido)-4-methylpentanamido)-2-oxo-4-((S)-2-oxopyrrolidin-3-yl)butyl 2,6-dichlorobenzoate]		EC50 [3]: 0.2 to 0.5 µM
CC(C)C[C@H](NC(=O)c1cc2ccccc2[nH]1)C(=O)N[C@@H](C[C@@H]1CCNC1=O)C(=O)COc1c(F)c(F)cc(F)c1F [Compound 4, N-((S)-4-methyl-1-oxo-1-(((S)-3-oxo-1-((S)-2-oxopyrrolidin-3-yl)-4-(2,3,5,6-tetrafluorophenoxy)butan-2-yl)amino)pentan-2-yl)-1H-indole-2-carboxamide]	< 0.05	
O=C(N[C@@H](CC1CCCCC1)C(=O)N[C@@H](C[C@@H]1CCNC1=O)C(=O)COc1c(F)c(F)cc(F)c1F)c1cc2ccccc2[nH]1 [Compound 5, N-((S)-3-cyclohexyl-1-oxo-1-(((S)-3-oxo-l-((S)-2-oxopyrrolidin-3-yl)-4-(2,3,5,6-tetrafluorophenoxy)butan-2-yl)amino)propan-2-yl)-1H-indole-2-carboxamide]	0.05 to 0.2	
COc1cccc2[nH]c(C(=O)N[C@@H](CC(C)C)C(=O)N[C@@H](C[C@@H]3CCNC3=O)C(=O)COc3c(F)cccc3F)cc12 [Compound 7, N-((S)-1-(((S)-4-(2,6-difluorophenoxy)-3-oxo-1-((S)-2-oxopyrrolidin-3-yl)butan-2-yl)amino)-4-methyl-1-oxopentan-2-yl)-4-methoxy-1H-indole-2-carboxamide]		EC50 [3]: 0.2 to 0.5 µM
COc1cccc2[nH]c(C(=O)N[C@@H](CC(C)C)C(=O)N[C@@H](C[C@@H]3CCNC3=O)C(=O)COC(=O)c3c(Cl)cccc3Cl)cc12 [Compound 8, (S)-3-((S)-2-(4-methoxy-1H-indole-2-carboxamido)-4-methylpentanamido)-2-oxo-4-((S)-2-oxopyrrolidin-3-yl)butyl 2,6-dichlorobenzoate]		EC50 [3]: 0.05 to 0.2 µM
CC(C)C[C@H](NC(=O)c1ccccc1)C(=O)N[C@@H](C[C@@H]1CCNC1=O)C(=O)COc1c(F)c(F)cc(F)c1F [Compound 9, N-((S)-4-methyl-1-oxo-1-(((S)-3-oxo-1-((S)-2-oxopyrrolidin-3-yl)-4-(2,3,5,6-tetrafluorophenoxy)butan-2-yl)amino)pentan-2-yl)benzamide]	0.05 to 0.2	
CC(C)C[C@H](NC(=O)C(=O)Nc1ccccc1)C(=O)N[C@@H](C[C@@H]1CCNC1=O)C(=O)COc1c(F)c(F)cc(F)c1F [Compound 10, N1-((S)-4-methyl-1-oxo-1-(((S)-3-oxo-1-((S)-2-oxopyrrolidin-3-yl)-4-(2,3,5,6-tetrafluorophenoxy)butan-2-yl)amino)pentan-2-yl)-N2-phenyloxalamide]	< 0.05	
CC(C)CC[C@H](NC(=O)c1cc2cc(F)ccc2[nH]1)C(=O)N[C@@H](C[C@@H]1CCNC1=O)C(=O)COc1c(F)c(F)cc(F)c1F [Compound 11, 5-fluoro-N-((S)-5-methyl-1-oxo-1-(((S)-3-oxo-1-((S)-2-oxopyrrolidin-3-yl)-4-(2,3,5,6-tetrafluorophenoxy)butan-2-yl)amino)hexan-2-yl)-1H-indole-2-carboxamide]	0.2 to 0.5	
O=C(N[C@@H](CCc1ccccc1)C(=O)N[C@@H](C[C@@H]1CCNC1=O)C(=O)COc1c(F)c(F)cc(F)c1F)c1cc2cc(F)ccc2[nH]1 [Compound 12, 5-fluoro-N-((S)-1-oxo-1-(((S)-3-oxo-1-((S)-2-oxopyrrolidin-3-yl)-4-(2,3,5,6-tetrafluorophenoxy)butan-2-yl)amino)-4-phenylbutan-2-yl)-1H-indole-2-carboxamide]	0.5 to 1	
CC(C)(C)C[C@H](NC(=O)c1cc2cc(F)ccc2[nH]1)C(=O)N[C@@H](C[C@@H]1CCNC1=O)C(=O)COc1c(F)c(F)cc(F)c1F [Compound 13, N-((S)-4,4-dimethyl-1-oxo-1-(((S)-3-oxo-1-((S)-2-oxopyrrolidin-3-yl)-4-(2,3,5,6-tetrafluorophenoxy)butan-2-yl)amino)pentan-2-yl)-5-fluoro-1H-indole-2-carboxamide]	0.5 to 1	
O=C(N[C@@H](Cc1ccccc1)C(=O)N[C@@H](C[C@@H]1CCNC1=O)C(=O)COc1c(F)c(F)cc(F)c1F)c1cc2cc(F)ccc2[nH]1 [Compound 14, 5-fluoro-N-((S)-1-oxo-1-(((S)-3-oxo-1-((S)-2-oxopyrrolidin-3-yl)-4-(2,3,5,6-tetrafluorophenoxy)butan-2-yl)amino)-3-phenylpropan-2-yl)-1H-indole-2-carboxamide]	0.05 to 0.2	
CC(C)C[C@H](NC(=O)OCc1ccccc1)C(=O)N[C@@H](C[C@@H]1CCNC1=O)C(=O)COc1c(F)c(F)cc(F)c1F [Compound 15, benzyl ((S)-4-methyl-1-oxo-1-(((S)-3-oxo-1-((S)-2-oxopyrrolidin-3-yl)-4-(2,3,5,6-tetrafluorophenoxy)butan-2-yl)amino)pentan-2-yl)carbamate]	0.2 to 0.5	
CC(C)C[C@H](NC(=O)c1cc2cc(F)ccc2[nH]1)C(=O)N[C@@H](C[C@@H]1CCNC1=O)C(=O)COc1c(F)c(F)cc(F)c1F [Compound 16, 5-fluoro-N-((S)-4-methyl-1-oxo-1-(((S)-3-oxo-1-((S)-2-oxopyrrolidin-3-yl)-4-(2,3,5,6-tetrafluorophenoxy)butan-2-yl)amino)pentan-2-yl)-1H-indole-2-carboxamide]	0.05 to 0.2	
O=C(N[C@@H](Cc1ccc(C(F)(F)F)cc1)C(=O)N[C@@H](C[C@@H]1CCNC1=O)C(=O)COc1c(F)c(F)cc(F)c1F)c1cc2cc(F)ccc2[nH]1 [Compound 17, 5-fluoro-N-((S)-1-oxo-1-(((S)-3-oxo-1-((S)-2-oxopyrrolidin-3-yl)-4-(2,3,5,6-tetrafluorophenoxy)butan-2-yl)amino)-3-(4-(tri-fluoromethyl)phenyl)-propan-2-yl)-1H-indole-2-carboxamide]	0.2 to 0.5	
CC(C)(F)C[C@H](NC(=O)c1cc2cc(F)ccc2[nH]1)C(=O)N[C@@H](C[C@@H]1CCNC1=O)C(=O)COc1c(F)c(F)cc(F)c1F [Compound 18, 5-fluoro-N-((S)-4-fluoro-4-methyl-1-oxo-1-(((S)-3-oxo-1-((S)-2-oxopyrrolidin-3-yl)-4-(2,3,5,6-tetrafluorophenoxy)butan-2-yl)amino)pentan-2-yl)-1H-indole-2-carboxamide]	0.5 to 1	
COc1ccc(C[C@H](NC(=O)c2cc3cc(F)ccc3[nH]2)C(=O)N[C@@H](CC2CCNC2=O)C(=O)COc2c(F)c(F)cc(F)c2F)cc1 (stereo partly drawn) [Compound 19, 5-fluoro-N-((2S)-3-(4-methoxyphenyl)-1-oxo-1-(((2S)-3-oxo-1-(2-oxopyrrolidin-3-yl)-4-(2,3,5,6-tetrafluorophenoxy)butan-2-yl)amino)propan-2-yl)-1H-indole-2-carboxamide]	0.2 to 0.5	
CC(C)C[C@H](NC(=O)c1ccc2ccccc2n1)C(=O)N[C@@H](C[C@@H]1CCNC1=O)C(=O)COc1c(F)c(F)cc(F)c1F [Compound 20, N-((S)-4-methyl-1-oxo-1-(((S)-3-oxo-1-((S)-2-oxopyrrolidin-3-yl)-4-(2,3,5,6-tetrafluorophenoxy)butan-2-yl)amino)pentan-2-yl)quinoline-2-carboxamide]	0.2 to 0.5	
CC(C)C[C@H](NC(=O)OC1CCCC1)C(=O)N[C@@H](C[C@@H]1CCNC1=O)C(=O)COc1c(F)c(F)cc(F)c1F [Compound 21, cyclopentyl ((S)-4-methyl-1-oxo-1-(((S)-3-oxo-1-((S)-2-oxopyrrolidin-3-yl)-4-(2,3,5,6-tetrafluorophenoxy)butan-2-yl)amino)pentan-2-yl)carbamate]		EC50 (Severe acute respiratory syndrome coronavirus 2, HeLa-ACE2, 24 h, HeLa-ACE2 cells, SARS-CoV-2 infection, 24 h, cells given as a bound): > 1 µM
CC(C)C[C@H](NC(=O)OCc1cccc(Cl)c1)C(=O)N[C@@H](C[C@@H]1CCNC1=O)C(=O)COc1c(F)c(F)cc(F)c1F [Compound 22, 3-chlorobenzyl ((S)-4-methyl-1-oxo-1-(((S)-3-oxo-1-((S)-2-oxopyrrolidin-3-yl)-4-(2,3,5,6-tetrafluorophenoxy)butan-2-yl)amino)pentan-2-yl)carbamate]	0.2 to 0.5	
